The term EC50 denotes the concentration that produces a half-maximal response. In general, Ki refers to a dissociation constant, usually derived from enzyme kinetics or from competition with a known ligand.

This passage reports EC50 and Ki results from patent US20240400579A1, “SPIROCYCLIC MODULATORS OF CHOLESTEROL BIOSYNTHESIS AND THEIR USE FOR PROMOTING REMYELINATION” (GENENTECH, INC., priority 2021, published 2024).

Test [1] has as its system zymostenol accumulation in EpiSC-derived OPCs (EBP). The experiment in a line: GC/MS-based sterol profiling, zymostenol accumulation. It counts as cell-based, mouse. To be noted: Mus musculus, 24 h, 8 doses from 0.15 nM to 333 nM, read-out: mZymo GCMS EC50. The procedure, abridged: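 EpiSC-derived mouse OPCs plated at 100,000 cells/well in N2B27 without growth factors and treated 24 h. Sterols extracted, silylated with BSTFA and measured by GC/MS (EI, full scan), quantified against cholesterol-d7. Zymostenol normalized to levels after 24 h with 100 nM positive control reference.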

For a further test, the system named is EpiSC-derived OPCs. Nature of the test: In vitro phenotypic screening of OPCs, MBP high-content imaging. It counts as cell-based, mouse. The settings on record: Mus musculus, 72 h, percentage of MBP+ oligodendrocytes; 3 days; 0.5 nM to 1000 nM; read-out: mOPC EC50. The procedure, abridged:
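Mouse EpiSC-derived OPCs seeded without growth factors and exposed 3 days at 37° C. to 8-point doses, 1000 nM to 0.5 nM final. Fixed cells stained for MBP and DAPI; high-content imaging gave percentage MBP+ oligodendrocytes, with EC50 from Hill-equation fit.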

The target in the next test is human EBP (Homo sapiens (Human), UniProt Q15125). The experiment in a line: Competition binding assay (SPA) to determine compound affinity to EBP. To be noted: radioligand [3H]-Ifenprodil 10 nM; Ki=IC50/(1+[L]/Kd); HEK293 membrane; read-out: hEBP SPA Ki.
Sequence of human EBP (Q15125 whole entry): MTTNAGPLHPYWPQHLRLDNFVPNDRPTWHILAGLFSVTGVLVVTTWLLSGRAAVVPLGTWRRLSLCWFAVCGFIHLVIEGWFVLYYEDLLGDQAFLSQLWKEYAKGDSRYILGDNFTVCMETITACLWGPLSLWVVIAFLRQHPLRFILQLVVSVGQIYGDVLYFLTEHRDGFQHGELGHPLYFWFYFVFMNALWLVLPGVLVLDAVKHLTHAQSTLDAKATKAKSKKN

`CC(C)(CN1CC[C@]2(CCS(=O)(=O)C2)C1)Oc1ccc(C(F)(F)F)cc1` (single isomer, unassigned) [Compound 141B]: the EC50 in test [1] came out at 49 nM; in the test with EpiSC-derived OPCs, 480 nM. The Ki on human EBP turned out to be 61 nM.
With `C[C@@H](Cc1cnc(C(F)(F)F)nc1)CN1CCC2(C1)CS(=O)(=O)C2` (single isomer, unassigned) [Compound 145A], the EC50 in test [1] came to 8.1 nM; with EpiSC-derived OPCs, 69 nM. In addition, the inhibition constant Ki at human EBP came to 56 nM.
`CC(C)(Cc1ccc(C(F)(F)F)nc1)CN1CC[C@@]2(CCS(=O)(=O)C2)C1` (single isomer, unassigned) [Compound 148B]: the EC50 in test [1] was 7.2 nM; in the test on EpiSC-derived OPCs it was 73 nM. For the same molecule, the Ki at human EBP is 32 nM.
Consider `O=S1(=O)CC2(CCN(CCOc3ccc(C(F)(F)F)cc3)C2)C1` [Compound 112, 6-(2-(4-(Trifluoromethyl)phenoxy)ethyl)-2-thia-6-azaspiro[3.4]octane-2,2-dioxide], for which the EC50 turned out to be 1.3 nM in test [1] and 33 nM in the test on EpiSC-derived OPCs. Further, the Ki on human EBP was 28 nM.
The like results for `O=S1(=O)CC2(CCN(CCOc3ccc(C(F)(F)F)nc3)CC2)C1` [Compound 230, 7-(2-((6-(Trifluoromethyl)pyridin-3-yl)oxy)ethyl)-2-thia-7-azaspiro[3.5]nonane 2,2-dioxide] were, in that order, 11 nM, 22 nM and 22 nM.
In the case of `CC(C)(CN1CCC2(C1)CS(=O)(=O)C2)Oc1ccc(C2CCC2)cc1` [Example 129, 6-(2-(4-Cyclobutylphenoxy)-2-methylpropyl)-2-thia-6-azaspiro[3.4]octane-2,2-dioxide], the figures for the EC50 (in test [1]; with EpiSC-derived OPCs) were 19 nM and 190 nM, respectively. On human EBP, the Ki amounted to 21 nM.
In the case of `CC(C)(CN1CCC2(C1)CS(=O)(=O)C2)Oc1cccc(C(F)(F)F)c1` [Example 130, 6-(2-Methyl-2-(3-(trifluoromethyl)phenoxy)propyl)-2-thia-6-azaspiro[3.4]octane-2,2-dioxide], the EC50 stood at 2.9 nM in test [1] and 10 nM with EpiSC-derived OPCs. The Ki on human EBP was determined as 16 nM.
In the case of `CC(C)(CN1CCC2(C1)CS(=O)(=O)C2)Oc1cccc(OC(F)(F)F)c1` [Example 131, 6-(2-Methyl-2-(3-(trifluoromethoxy)phenoxy)propyl)-2-thia-6-azaspiro[3.4]octane 2,2-dioxide], the values for the concentration giving a half-maximal response (EC50) (in test [1]; with EpiSC-derived OPCs) were 1.6 nM and 7.8 nM, respectively. The Ki on human EBP came to 31 nM.
Regarding `CC(C)(CN1CCC2(C1)CS(=O)(=O)C2)Oc1ccc(C(F)(F)F)nc1` [Example 135, 6-(2-Methyl-2-((6-(trifluoromethyl)pyridin-3-yl)oxy)propyl)-2-thia-6-azaspiro[3.4]octane-2,2-dioxide], the EC50 was 32 nM in test [1] and 140 nM in the test on EpiSC-derived OPCs. The Ki on human EBP worked out at 29 nM.
On the same counts, the results for `CC(C)(CN1CCC2(C1)CS(=O)(=O)C2)Oc1ccc(OC(F)(F)F)cc1` [Example 136, 6-(2-Methyl-2-(4-(trifluoromethoxy)phenoxy)propyl)-2-thia-6-azaspiro[3.4]octane 2,2-dioxide] are 3.6 nM, 12 nM and 29 nM.
Regarding `CC(C)(CN1CCC2(CC1)CS(=O)(=O)C2)Oc1ccc(C(F)(F)F)cc1` [Example 138, 7-(2-Methyl-2-(4-(trifluoromethyl)phenoxy)propyl)-2-thia-7-azaspiro[3.5]nonane 2,2-dioxide], the EC50 came to 1 nM in test [1] and 2.3 nM in the test on EpiSC-derived OPCs. Further, the Ki at human EBP was 16 nM.
The like results for `CC(C)(Cc1ccc(C2CCC(F)(F)CC2)c(Cl)c1)CN1CCC2(C1)CS(=O)(=O)C2` [Example 139, 6-(3-(3-Chloro-4-(4,4-difluorocyclohexyl)phenyl)-2,2-dimethylpropyl)-2-thia-6-azaspiro[3.4]octane 2,2-dioxide] were, in that order, 1.6 nM, 0.46 nM and 30 nM.
